Laboratory results from PubChem BioAssay (NCI).
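A five-concentration, 48-hour dose response in 96-well plates underlies each endpoint, interpolated linearly between surrounding concentrations. GI50 is the concentration that inhibits growth by half. The concentration for full growth arrest is given as TGI.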

Columns and labels:
Assay in all cases: NCI anticancer screen, dose series, 48 h
COLO 205 colon = test system: COLO 205 colon
EKVX NSCLC = test system: EKVX NSCLC
HL-60(TB) leukemia = test system: HL-60(TB) leukemia
M14 melanoma = test system: M14 melanoma
NCI-H23 lung = test system: NCI-H23 lung
OVCAR-3 ovarian = test system: OVCAR-3 ovarian
OVCAR-8 ovarian = test system: OVCAR-8 ovarian
RPMI-8226 leukemia = test system: RPMI-8226 leukemia
SK-MEL-2 melanoma = test system: SK-MEL-2 melanoma
SK-OV-3 ovarian = test system: SK-OV-3 ovarian

Structure (SMILES)	GI50 (COLO 205 colon) [µM]	GI50 (EKVX NSCLC) [µM]	TGI (EKVX NSCLC) [µM]	GI50 (HL-60(TB) leukemia) [µM]	TGI (HL-60(TB) leukemia) [µM]	GI50 (M14 melanoma) [µM]	TGI (M14 melanoma) [µM]	GI50 (NCI-H23 lung) [µM]	TGI (NCI-H23 lung) [µM]	GI50 (OVCAR-3 ovarian) [µM]	GI50 (OVCAR-8 ovarian) [µM]	TGI (OVCAR-8 ovarian) [µM]	GI50 (RPMI-8226 leukemia) [µM]	TGI (RPMI-8226 leukemia) [µM]	GI50 (SK-MEL-2 melanoma) [µM]	TGI (SK-MEL-2 melanoma) [µM]	GI50 (SK-OV-3 ovarian) [µM]	TGI (SK-OV-3 ovarian) [µM]	TGI (COLO 205 colon) [µM]	TGI (OVCAR-3 ovarian) [µM]
COC(=O)[C@H](C[C@H](Cc1ccccc1)NC(=O)c1csc([C@@H](C[C@H](C(C)C)N(C)C(=O)[C@@H](NC(=O)[C@H]2CCCCN2C)C(C)C)OC(C)=O)n1)NC(=O)OCc1ccccc1	< 0.0009	0.00843	> 9	< 0.0009	0.00178	< 0.0009	0.365	0.00111	> 9	< 0.0009	< 0.0009	> 9	< 0.0009	2.34	< 0.0009	4.53	0.00199	> 9	–	–
COc1ccc(/C=C(/C#N)C(N)=O)cc1OC	–	–	> 100	–	> 100	–	> 100	–	> 100	–	–	> 100	–	> 100	–	> 100	–	> 100	> 100	> 100
CCOC(=O)COc1ccccc1/C=C1\CCC(CN(C)C)C1=O (stereo unspecified)	–	–	34.7	–	2.58	–	22.6	–	19.3	–	–	15.1	–	3.48	–	24.7	–	31.4	11.1	20.6
COC(=O)[C@@]1(C)CC[C@]2(C)CC[C@]3(C)C4=CC=C5C(=CC(=O)C(O)=C5C)[C@]4(C)[C@@H](O)C[C@@]3(C)[C@@H]2C1	7.36	12.9	25.2	9.68	28.9	9.74	22.2	13.5	28.4	8.63	14.8	28.4	5.17	27.7	11.2	23.2	19.1	42.2	22.2	18.5
Cc1ccc(C(=O)c2nnc(C(=O)c3ccc(C)cc3)nn2)cc1	–	–	> 100	–	48.2	–	56.3	–	> 100	–	–	> 100	–	> 100	–	> 100	–	36.8	> 100	> 100
COc1cc(C2CC(c3ccc4c(c3)OCO4)=NN2C=O)cc(OC)c1OC (stereo unspecified)	1.3	3.74	> 100	0.935	–	1.3	> 100	4.14	> 100	0.965	> 23.3	> 100	5.17	> 64.6	9.46	> 100	2.25	> 100	5.91	3.25
NCCn1c(=O)[nH]c(=O)[nH]c1=S	> 100	> 100	> 100	> 100	> 100	> 100	> 100	> 100	> 100	> 100	> 100	> 100	> 100	> 100	> 100	> 100	> 100	> 100	> 100	> 100
C=CCOc1cccc(/C=C2\SC(=Nc3ccc(O)cc3)NC2=O)c1	2.64	1.47	> 100	0.241	0.749	0.384	22.9	1.01	31.4	0.284	0.813	14	0.372	3.1	2.91	18.5	1.66	15.7	11.1	3.15
CC[C@@H](C(=O)O)C1CC[C@H](C)C([C@@H](C)[C@H](O)[C@H](C)C(=O)[C@H](CC)C2O[C@]3(C=C[C@@H](O)[C@]4(CC[C@@](C)(C5CC[C@](O)(CC)[C@H](C)O5)O4)O3)[C@H](C)C[C@@H]2C)O1 (stereo partly specified)	0.224	0.523	22.5	0.0406	0.347	1.29	2.82	0.186	5.76	0.0434	1.21	37.4	0.153	3.48	0.981	7.53	3.44	31.8	5.2	16.4
Cc1ccc(NC(=O)C(=O)C(C#N)c2ccccc2C)cc1C (stereo unspecified)	–	–	> 100	–	> 85.8	–	> 100	–	> 100	–	–	> 100	–	> 100	–	> 100	–	> 100	> 67.3	> 100
COc1ccc(OC)c(/C=C2\SC(=S)NC2=O)c1	48.3	14.2	42.1	58	> 100	30.7	> 100	23.1	68.6	36.7	30.5	> 100	36.7	> 100	80.6	> 100	33.1	> 100	> 100	> 100
Cc1ccc(-c2cn3ccnc3c(-c3ccc(Cl)cc3)n2)cc1	0.2	0.543	> 100	0.0856	> 100	0.416	> 36.3	0.433	27.6	0.0412	1.43	34.2	0.207	> 39.5	9.27	> 100	0.714	> 94	> 29.3	–
Cc1c(C(=O)C/C(=N\O)C(=O)Nc2cc(Cl)c(Cl)cc2Cl)[n+](=O)c2ccccc2n1[O-]	–	–	43.6	–	> 100	–	15.9	–	65.6	–	–	40.7	–	38.4	–	34.8	–	> 100	12.6	7.52
Cc1[nH]ccc2c1[nH]c1cc(=O)ccc12	–	–	> 100	–	> 100	–	> 100	–	> 100	–	–	> 100	–	> 100	–	> 100	–	> 100	> 100	> 100
COc1cc2c(c(OC)c1)C1c3ccccc3NC(=O)N1CC2 (stereo unspecified)	2.82	4.79	> 100	2.12	5.56	1.97	21.4	3.69	> 100	3.27	5.01	> 100	5.39	68.2	2.85	91.4	3.67	> 100	8.25	> 100
CCCC(C)c1cc(Cc2cc(Cl)cc(Cl)c2O)c(O)c(Cc2cc(Cl)cc(Cl)c2O)c1 (stereo unspecified)	1.61	1.96	11	1.1	9.44	1.63	7.46	0.789	9.64	1.71	0.737	14.6	0.363	2.5	1.76	4.77	3.36	9.23	5.7	12.7
CC#C[C@]1(O)CC[C@H]2[C@@H]3CCC4=CC(=O)CCC4=C3[C@@H](c3ccc4c(c3)OCO4)C[C@@]21C	118	40.4	813	47.5	399	31	154	152	> 1000	110	141	783	49.4	331	111	291	186	777	291	320
CN(C)C(=O)OC(Cn1cncn1)c1ccc(Cl)cc1Cl (stereo unspecified)	–	–	> 100	–	> 100	–	> 100	–	> 100	–	–	> 100	–	> 100	–	> 100	–	> 100	> 100	> 100
O=C(CN1CCOCC1)Nc1nc(-c2ccc(Cl)cc2)cs1	–	–	> 100	–	44.9	–	> 100	–	40.1	–	–	72.2	–	53.7	–	54.5	–	> 100	93	76.9
COc1cccc2c1c(C(=O)C(=O)Nc1cc(C)no1)cn2Cc1ccc(F)cc1	13.8	32.6	> 100	2.2	> 20.2	5.42	> 79.9	> 40.5	> 84	2.62	25.2	> 100	2.11	> 24.2	8.48	> 87.3	31.4	> 100	53	> 27.3
Cc1ccc(N=Nc2c(O)c(C(=O)O)cc3ccccc23)cc1C	–	–	> 100	–	> 100	–	> 100	–	> 100	–	–	> 100	–	> 100	–	> 100	–	> 100	> 100	> 100
Nc1nc2c(c3ncncc13)C(c1cccc(C(F)(F)F)c1)Cc1ncncc1-2 (stereo unspecified)	3.26	6.18	> 100	3.44	14.1	2.97	10	5.17	> 100	3.03	8.08	> 100	5.33	43.8	5.36	29.7	5.07	> 100	13.8	11.4
C=CCC[CH2][Sn]([c]1ccccc1)([c]1ccccc1)[c]1ccccc1	1.64	1.89	3.97	5.29	> 100	1.62	3.09	1.64	3.01	1.54	1.78	3.28	1.65	4.37	1.76	3.2	1.89	3.57	3	2.91
CC1=Nc2ccccc2S/C1=C(/C)NNC(=O)C(N)=O	–	–	> 100	–	> 100	–	> 100	–	> 100	–	–	> 100	–	> 100	–	> 100	–	> 100	> 100	> 100
CCCC(=O)OC1C(C(O)CO)OC2OC(C)(C)OC21 (stereo unspecified)	–	–	> 100	–	< 3.16	–	> 100	–	> 100	–	–	> 100	–	> 100	–	> 100	–	> 100	> 100	> 100
COc1ccc2c(c1)/C(=C\c1c(C)nc3sccn13)C(=O)N2	< 0.0506	2.12	> 100	0.136	0.534	< 0.0495	> 100	0.382	> 100	< 0.01	0.306	–	–	> 26.4	0.162	> 83.7	–	> 38.3	–	–
O=C1[C@H]2ON(c3ccccc3)C(c3ccccc3Cl)[C@H]2C(=O)N1c1ccc(Cc2ccc(N3C(=O)[C@@H]4ON(c5ccccc5)C(c5ccccc5Cl)[C@@H]4C3=O)cc2)cc1 (stereo partly specified)	–	–	> 100	–	> 100	–	73.5	–	> 100	–	–	> 100	–	> 100	–	> 100	–	> 100	> 100	> 100
O=C(/C=C/c1ccccc1)c1cc(Br)ccc1O	–	–	27.6	–	25.7	–	52.9	–	31.4	–	–	30.4	–	34	–	40.6	–	38.1	33.3	43
CC1C=C(OC(=O)c2ccccc2)C(=O)C(n2cc(F)c(=O)[nH]c2=O)O1 (stereo unspecified)	–	–	> 100	–	> 100	–	> 100	–	> 100	–	–	> 100	–	> 100	–	> 100	–	> 100	> 100	> 100
CN1CCC(n2cnc(-c3ccc(F)cc3)c2-c2ccnc(NCCO)n2)CC1	8.86	> 23.2	> 25	> 25	> 25	> 25	> 25	> 25	> 25	> 23.4	18.4	> 25	> 25	> 25	> 25	> 25	> 25	> 25	> 25	> 25
